Reference: PubChem BioAssay AID1996
≈ marks a conversion by molar mass, not a printed value.

Details: buffer; pH 7.4; 200.0 µM

Row | Structure (SMILES) | solubility kinetic [µg/mL]
1 | O=C(COc1ncnc2cc(Cl)ccc12)c1ccc2c(c1)OCCO2 | < 0.4
2 | CC(=O)N1CCN(Cc2nc(-c3cccc(Cl)c3)no2)CC1 | > 48.1
3 | CC(=O)Nc1ccccc1NC(=O)c1ccccc1-c1ccccc1 | > 49.6
4 | Cc1cc2oc(=O)cc(CN3CCCCC3)c2cc1C | < 0.6
5 | CC(=O)c1cccc(OCCCOc2cccc3cccnc23)c1 | 37.2 (≈ 116 µM)
6 | COc1cc(S(=O)(=O)N2CCCN(C)CC2)ccc1NC(C)=O | > 51.2
7 | CC1=C(C)CC(C(=O)Nc2nccs2)C(C(=O)O)C1 (stereo not given) | 40.6 (≈ 145 µM)
8 | Cc1cc(NC(=O)COC(=O)c2ccccc2O)no1 | 7.9 (≈ 28.6 µM)
9 | CC(C)(C)N(Cc1ccccc1)C(=O)c1cccs1 | 1.7 (≈ 6.22 µM)
10 | Cc1ccc(C(=O)COC(=O)CCNS(=O)(=O)c2ccccc2F)cc1 | > 56.9
11 | CC(C)COc1ccc(CNC(=S)Nc2ccccc2)cc1Cl | < 0.4
12 | O=C(CN1CCOCC1)Nc1cc([N+](=O)[O-])ccc1Cl | 9.8 (≈ 32.7 µM)
13 | COc1cc(OC)cc(C(=O)N[C@H](C(=O)NC2CCCc3ccccc32)C(C)C)c1 (stereo not given in full) | 1.9 (≈ 4.63 µM)
14 | CCOc1ccccc1CNCCNCC(C)O.Cl (stereo not given) | > 48.8
15 | COc1ccc(CCN2CC(C(=O)Nc3nccs3)CC2=O)cc1OC (stereo not given) | > 56.3
16 | N#Cc1cccc(NC(=O)Cc2ccccc2)c1 | > 35.4
17 | CN(Cc1cccs1)C(=O)CSc1nc2ccccc2[nH]1 | 45 (≈ 142 µM)
18 | CC1CN(CC(=O)NC(C)c2ccccc2)CC(C)O1 (stereo not given) | > 41.5
19 | CCS(=O)(=O)N1CCC(C(=O)Oc2ccc(Cl)cc2)CC1 | 9.9 (≈ 29.8 µM)
20 | CCc1nc(Nc2ccccc2OC)c2oc3ccccc3c2n1.Cl | < 0.3
21 | Cc1cc(C)c(OCCCON2C(=O)CCC2=O)c(Br)c1 | > 53.4
22 | O=C(COC(=O)c1cccnc1Cl)c1ccc(F)cc1 | 42.7 (≈ 145 µM)
23 | COc1ccc(S(=O)(=O)NC2CC2)cc1Br | > 45.9
24 | Cc1cc(C)cc(NC(=O)Nc2cnccn2)c1 | 2.4 (≈ 9.91 µM)

Row | Structure (SMILES) | solubility kinetic [µg/mL]
25 | Cc1cc(C)nc(Nc2nc3ccccc3s2)n1 | < 0.1
26 | CCOC(=O)c1cnc2c(ccc3ccccc32)c1NCCCN(C)C | 46.1 (≈ 131 µM)
27 | CC1N=C(c2ccccc2)c2cc(Br)ccc2NC1=O (stereo not given) | > 49.4
28 | O=C1CNC(=S)N1CCCc1ccccc1 | > 35.1
29 | O=C(Nc1cccc(F)c1)Nc1cccc(Cl)c1 | 2 (≈ 7.56 µM)
30 | CCC1OC(c2ccc([N+](=O)[O-])cc2)=Nc2ccccc21 (stereo not given) | 3.1 (≈ 11 µM)
31 | CC(C)CCNC(=O)C1(c2cccs2)CCOCC1 | > 42.2
32 | COC(=O)c1ccccc1NC(=O)CN1CCc2ccccc2C1 | 10.7 (≈ 33 µM)
33 | CC(C)(C)C(=O)Nc1ccc(/C=C/C(=O)c2ccco2)cc1 | 28.9 (≈ 97.2 µM)
34 | Cc1nccn1C[C@@H]1CCc2c(c3ccccc3n2C)C1=O | 32.5 (≈ 111 µM)
35 | CC1(C)CC(NC(=O)Nc2ccc([N+](=O)[O-])cc2)CC(C)(C)N1 | > 48.1
36 | CC(=O)c1ccc(NC(=O)[C@@H]2CCCN2C(=O)OC(C)(C)C)cc1 | > 49.9
37 | O=C(CNC(=O)c1ccco1)N/N=C/c1ccc(O)cc1O | > 45.5
38 | Cn1c(Nc2ccc(Cl)cc2)cc(=O)n(C)c1=O | > 39.9
39 | COCC(C)NC(=O)C(C)N1c2cccc3cccc(c23)S1(=O)=O (stereo not given) | 50.9 (≈ 146 µM)
40 | C#CCOc1ccc(Cl)cc1/C=C1/C(=O)ON=C1C | > 41.4
41 | O=C(Oc1ccc(Cl)c(Cl)c1)C1=CC=CN2CCS(=O)(=O)N=C12 | 19.7 (≈ 52.8 µM)
42 | COc1ccc(NC(=S)Nc2ccc(C)c(Cl)c2)cc1OC | 36.5 (≈ 108 µM)
43 | COc1ccc(Cl)cc1NC(=O)COC(=O)C1CCCCC1 | 3.2 (≈ 9.82 µM)
44 | Cc1ccc(S(=O)(=O)Nc2ccccc2C(O)c2ccccc2)cc1 (stereo not given) | 6.1 (≈ 17.3 µM)
45 | N/C(CCS(=O)(=O)c1ccc(Cl)cc1)=N\OC(=O)c1ccccc1C(F)(F)F | 57 (≈ 131 µM)
46 | O=C(CNCc1cccc(Cl)c1)N1CCc2ccccc2C1 | 38.9 (≈ 124 µM)
47 | COC(=O)c1ccc(NC(=O)CNc2ccccc2)cc1 | 28.3 (≈ 99.5 µM)
48 | Cc1cc(C)nc(NC(=O)c2ccc(Br)s2)n1 | > 46.8

Row | Structure (SMILES) | solubility kinetic [µg/mL]
49 | CCCc1cnc(N2CCN(C(=O)c3ccc(OC)cc3)CC2)nc1 | 20.5 (≈ 60.2 µM)
50 | COc1ccccc1/C=N/OCc1cc(C(C)=O)ccc1OC | 8.4 (≈ 26.8 µM)
51 | O=C(Nc1ccc(F)cc1)c1ccc2ncsc2c1 | 10.3 (≈ 37.8 µM)
52 | COc1ccc(NC(=S)NC2CC3CCC2C3)c(OC)c1 (stereo not given) | 14.8 (≈ 48.3 µM)
53 | Cc1ccc2cc(C)c(SCC(=O)Nc3cc(C)on3)nc2c1 | < 0.2
54 | CNc1snc(C)c1C(=O)OCC(=O)c1ccc(Cl)cc1 | 2.6 (≈ 8.01 µM)
55 | Cc1ccc(CN2CCCC(C(=O)c3ccc4c(c3)OCO4)C2)cc1C (stereo not given) | 25.4 (≈ 72.3 µM)
56 | CCOCCCNC(=O)C1CC(=O)N(CCc2ccccc2)C1 (stereo not given) | 41.7 (≈ 131 µM)
57 | CCN(CC)C(=O)c1ccc(NC(=O)c2c(C)noc2C)cc1 | > 47.3
58 | CCN(CC)S(=O)(=O)c1cc(NC(=O)CCc2c(C)noc2C)ccc1C | > 59
59 | Cc1nc(-c2ccccn2)sc1C(=O)O | > 33
60 | CN1CCN(c2nc3c(c(=O)n(C)c(=O)n3C)n2Cc2ccccc2F)CC1 | > 58
61 | CCOP(=O)(c1ccc(N(C)C)cc1)C(O)c1ccncc1 (stereo not given) | > 48
62 | Cc1nc(C)c(C(=O)OC(C)C(=O)Nc2ccc(F)cc2)s1 (stereo not given) | > 48.4
63 | CCOC(=O)c1cc(S(=O)(=O)NC2CCCCC2)cn1C | 43.9 (≈ 140 µM)
64 | CC1CCCCN1C(=O)CSc1nc(-c2ccccc2)cn1N (stereo not given) | > 49.6
65 | Cc1cccc(C(=O)OCC(=O)NCC(C)C)c1O | 13.6 (≈ 51.3 µM)
66 | O=C(CSc1cccc2cccnc12)N/N=C/c1ccncc1 | > 48.4
67 | CC1CN(C2=CC(=O)CCC2)CC(C)O1 (stereo not given) | > 31.4
68 | NC(=O)COc1ccc(NC(=O)CC23CC4CC(CC(C4)C2)C3)cc1 | 8.9 (≈ 26 µM)
69 | O=C(c1ccccc1)N1CCN(C(=O)c2ccc3c(c2)OCO3)CC1 | > 50.8
70 | CS(=O)(=O)c1ccccc1C(=O)Nc1nc2ccccc2[nH]1 | > 47.3
71 | O=c1[nH]c2cccnc2n1-c1ccc([N+](=O)[O-])cc1 | 13.3 (≈ 51.9 µM)
72 | O=C(/C(=C(\O)c1ccccc1)c1ncc[nH]1)c1ccccc1 | 9.5 (≈ 32.7 µM)

Row | Structure (SMILES) | solubility kinetic [µg/mL]
73 | O=C(CSc1nnc(-c2ccncc2)o1)N1CCCC1 | > 43.6
74 | COc1ccccc1CN(C)C(=O)CNC(=O)c1cccc(Cl)c1 | 50.8 (≈ 146 µM)
75 | CC(C)NC(=O)c1ccc2c(=O)n(CC3CCCO3)c(=S)[nH]c2c1 (stereo not given) | 4.4 (≈ 12.7 µM)
76 | Cc1cc(C)nc(NC(=O)c2c(Cl)cccc2Cl)n1 | > 44.4
77 | COc1ccccc1NC(=S)NC1CCCCCCCCCCC1 | < 0.4
78 | O/N=C/c1ccn(-c2ccc(Br)cc2)c1 | 2.6 (≈ 9.81 µM)
79 | COc1ccc(CNC(=O)CN2C(=O)c3ccccc3C2=O)cc1 | 4.4 (≈ 13.6 µM)
80 | O=C(COc1ccccc1F)OCC(=O)c1ccc([N+](=O)[O-])cc1 | 46.8 (≈ 140 µM)
81 | Cc1ccc(C(=O)NC(=S)N2CCCCCC2)cc1 | > 41.5
82 | N#C/C(=C\c1ccccc1)C(=O)Nc1ccccn1 | > 37.4
83 | CC(=O)OC1(c2ccccc2)CCN(C)CC1(C)C.Cl (stereo not given) | 44.2
84 | CCOC(=O)Cn1cc(C#N)c2ccccc21 | > 34.2
85 | COc1ccccc1C1CCN(Cc2ccccc2Cl)CC1 | 3.6 (≈ 11.4 µM)
86 | C=CCN(c1ccccc1)S(=O)(=O)c1cccc(C(=O)NCc2ccco2)c1 | 23.9 (≈ 60.3 µM)
87 | O=C(Cc1ccccc1F)Nc1cc(S(=O)(=O)N2CCOCC2)ccc1N1CCCC1 | 15.1 (≈ 33.7 µM)
88 | O=C(COc1ccc(Cl)cc1)Nc1ccccc1Cl | < 0.6
89 | Cc1ccc(NC(=O)Nc2cc(C(F)(F)F)c[nH]c2=O)cc1 | 0.4 (≈ 1.29 µM)
90 | C=CCc1cc(C)ccc1OCCCn1ccnc1.O=C(O)C(=O)O | 29.1
91 | Cc1ccc(C)c(NC(=O)CCOc2ccccc2)c1 | 3.7 (≈ 13.7 µM)
92 | COc1ccc(NC(=S)N2CCCCCC2)cc1OC | 42.4 (≈ 144 µM)
93 | CC1CN(C(=O)COC(=O)c2cnc(Cl)c(Cl)c2)CC(C)O1 (stereo not given) | > 52.1
94 | O=C(Nc1ccccc1C(=O)NCCc1ccc(O)cc1)c1ccco1 | 24.2 (≈ 69.1 µM)
95 | CSc1sc(C(=O)N2CCCCC2)c(-c2cccs2)c1C#N | 31.6 (≈ 90.7 µM)
96 | N/C(=N\OC(=O)CCN1C(=O)c2ccccc2C1=O)c1ccccn1 | 49.6 (≈ 147 µM)

Row | Structure (SMILES) | solubility kinetic [µg/mL]
97 | COc1ccc(CN2C(=O)CSCC2=O)cc1OC | > 42.2
98 | Cc1cc(C(=O)Nc2ccccc2C)c2ccccc2n1 | 34.7 (≈ 126 µM)
99 | O=C(O)c1cccc2c1C(=O)N(C1CCCC1)C2 | 34 (≈ 139 µM)
100 | CS(=O)(=O)c1ccc(NCC2CCCO2)c([N+](=O)[O-])c1 (stereo not given) | > 45
101 | COc1ccc(S(=O)(=O)N2CCN(C(=O)C3CC3)CC2)cc1 | 48.6 (≈ 150 µM)
102 | COc1ccc(OCC(=O)Nc2cc(OC)ccc2N2CCCCC2)cc1 | < 0.4
103 | Fc1ccc2[nH]c3c(Cl)ncnc3c2c1 | 7.9 (≈ 35.6 µM)
104 | O=C(CNC(=O)c1ccc(-c2ccccc2)cc1)Nc1cccc(CO)c1 | 9.3 (≈ 25.8 µM)
105 | CCOC(=O)Cn1c(=O)oc2cc(S(=O)(=O)NC(C)(C)CC)ccc21 | 53.8 (≈ 145 µM)
106 | O=C(O)CC(CC(=O)Nc1ccc2ccccc2n1)c1ccccc1 (stereo not given) | > 50.2
107 | CC(=O)NC(CC(=O)NCc1ccncc1)c1ccccc1 (stereo not given) | > 44.6
108 | O=C(CCCc1cccs1)NCCc1c[nH]c2ccccc12 | 44.9 (≈ 144 µM)
109 | CC1CC(C)CN(C(=O)COC(=O)c2ccc3c(c2)OCO3)C1 (stereo not given) | 47 (≈ 147 µM)
110 | Cc1cc(C)c(S(=O)(=O)c2ccc(Cl)cc2)c(=O)[nH]1 | 19.8 (≈ 66.5 µM)
111 | Oc1ccccc1-c1cncn1Cc1ccccc1 | 11.4 (≈ 45.5 µM)
112 | CC(=O)Nc1ccc(NC(=O)CN2C(=O)NC3(CCCCCCC3)C2=O)cc1 | 45.1 (≈ 117 µM)
113 | Cc1nc2ccccc2c(=O)n1-c1ccc([N+](=O)[O-])cc1 | > 42.2
114 | COCc1cc(C)nc2oc(C(=O)c3ccccc3)c(N)c12 | 8.4 (≈ 28.3 µM)
115 | CCC(C)NC(=O)c1ccc(CSCc2ccc(Cl)cc2)o1 (stereo not given) | 22.6 (≈ 66.9 µM)
116 | CC(Sc1ccc2ccccc2c1)C(=O)NC(N)=O (stereo not given) | 8.6 (≈ 31.3 µM)
117 | CC(C)(C)C(=O)N1CCN(c2nc3ccccc3o2)CC1 | > 43.1
118 | COc1cc([N+](=O)[O-])ccc1Nc1nc(C)cc(C)n1.Cl | 0.5
119 | O=C(Oc1ccccc1N1CCOCC1)c1ccccc1 | 26.3 (≈ 92.8 µM)
120 | CCOC(=O)C1CCCN(C(=O)COc2ccc(C(=O)c3ccc(F)cc3)cc2)C1 (stereo not given) | > 62
